Results: patent publication US7723289B2, “PIF tetrapeptides” (BioIncept, LLC, priority 2003, dated 2010)
Several values for one entry are separate records, joined by “and”; a condition that tells them apart may be missing. Identical values can stand only once.

How the values were obtained:
[1] = tested on: PIF-1 polyclonal antibody; assay: PIF-1 competitive ELISA, biotin labeled versus unlabeled peptide; assay type: binding, rabbits; settings: 4.5 ug/ml pAb coating concentration; read-out: IC50 of dose response curve
PBMC = assay: Time-dependent cytokine secretion by PBMC (Table 3); assay type: cell-based, human
Procedure: Detailed time dependent and multiple controls were used the secretion of several cytokines by PBMC (IL-2, IL-5, IL-8, GM-CSF, IL-4, IL-10, TNF-α, IFN-γβ, IL-1 and IL-6) were measured. […] By 4 hours, sPIF-1 blocked TNF alpha with recovery by 24 hours. Also INFgamma secretion initiated only after 48 hours. […] Effects on cytokines was already noted at 0.7 nM. Similar effects were found also with other mitogens LPS and PHA when PIF-1 was tested.

[2] = tested on: donor lymphocytes and platelets; assay type: cell-based, human
Description: The PIF assay, as disclosed in U.S. Pat. No. 5,646,003 to Barnea et al., entitled “Preimplantation Factor” issued Jul. 9, 1997, and in U.S. Pat. No. 5,981,198 to Barnea et al., entitled “Preimplantation Factor” granted Nov. 9, 1999, the disclosures of which are incorporated herein by reference in their entirety, may be used to measure the response of the immune system to pregnancy specific preimplantation factors. […] Lymphocyte-platelet rosettes result from the interaction of the T cell surface protein CD2 with its ligand CD58 expressed on the platelet membrane. Anti-CD2, by binding to the CD2 antigen on the T cells, inhibits their interaction with platelets.
Human PBMC were isolated by the Ficoll method. FITC-labeled nPIF-115 (SEQ ID NO: 1) and (FITC)-labeled scrPIF-1 (SEQ ID NO:5) and match-size irrelevant peptide (FITC)-labeled negative controls negPIF-1(15) (SEQ ID NO:11), were dissolved in PBS at concentrations ranging from 0.75 to 48.19 μM, and were incubated with 500,000 lymphocytes for 1 h at room temperature. The cells were washed 6 times with PBS and resuspended in 500 μl of the same buffer. T-cells and monocytes identification was performed in independent experiments by incubation with anti-CD3 and anti-CD14 antibody-phycoerithryn (PE) labeled. nPIF-115 (SEQ ID NO: 1) binding to PBMC was determined by flow cytometry. In addition, rosettes formed by T cell-platelets were detected by flow cytometry using anti-CD3 antibody-PE and anti-CD41a antibody-FITC (all antibodies were from Pharmingen Inc.).

epithelial cells = assay: PIF binding to endometrial epithelial cells (MaBCD2 staining); set-up: species or system human; settings: compared to non-relevant IgG
Procedure: In addition, to compare the recovery of β-3 integrin expression with PIF effects described after cultured hEEC in a free-fetal bovine serum (FBS) medium some cells were cultured again in FBS-medium. […] PIF binding to epithelial cells was also examined. Binding was examined using MaBCD2 staining.

[3] = 4 h post induction, substance alone
[4] = 4 h post induction, with MabCD3 coated wells
[5] = 24 h post induction, substance alone
[6] = 24 h post induction, with MabCD3 coated wells
[7] = 48 h post induction, substance alone
[8] = 48 h post induction, with MabCD3 coated wells
[9] = 96 h post induction, substance alone
[10] = 96 h post induction, with MabCD3 coated wells

Procedure for 46 different kinases: The effect of PIF-1 on kinases related to metabolic function was examined. The methodology for testing PIF activity on MEK1 kinase is described below, but it is applicable for all kinases tested: 50 nM Tris pH, 0.1 mM EGTA 0.10% b-mercaptoethanol 1 mg/mg BSA PIF-1 15 was dissolved in deionised water at 5 nM-5 uM range of concentrations. […] (SEQ ID NO: 23), 10 mM Mg Acetate and [gamma-33P-ATP] 500 cpm/pmol. Reaction initiated with addition of MgATP. After 40 minutes incubation at room temperature, reaction stopped by the addition of 5 ul of a 3% phosphoric acid solution. 10 ul of the reaction is spotted onto a P30 filtermat and washed three times for 5 min in 75 mM phosphoric acid and once in methanol prior to drying and scintillation counting.
The effects of PIF on 46 different kinases (listed below in Table 5) related to metabolic function were tested.

## MVRIKPGSANKPSDD [sPIF-1(15)]
[1]
  IC50: 0.5 to 0.7 nM
PBMC
  concentration at which effects on cytokines was already noted: 0.7 nM
PBMC; [3]
  GM-CSF: 0 pg/mL
  IFN-y: 0 pg/mL
  IL-1β: 0 pg/mL
  IL-2: 0 pg/mL
  IL-4: 0 pg/mL
  IL-5: 0 pg/mL
  IL-6: 0 pg/mL
  IL-8: 684.5 pg/mL
  IL-10: 0 pg/mL
  TNF-α: 0 pg/mL
PBMC; [4]
  GM-CSF: 0 pg/mL
  IFN-y: 0 pg/mL
  IL-1β: 0 pg/mL
  IL-2: 0 pg/mL
  IL-4: 0 pg/mL
  IL-5: 0 pg/mL
  IL-6: 17.5 pg/mL
  IL-8: 514.8 pg/mL
  IL-10: 0 pg/mL
  TNF-α: 481.6 pg/mL
PBMC; [5]
  GM-CSF: 0 pg/mL
  IFN-y: 0 pg/mL
  IL-1β: 0 pg/mL
  IL-2: 0 pg/mL
  IL-4: 0 pg/mL
  IL-5: 0 pg/mL
  IL-6: 36.3 pg/mL
  IL-8: >6330 pg/mL
  IL-10: 0 pg/mL
  TNF-α: 38.0 pg/mL
PBMC; [6]
  GM-CSF: 58.9 pg/mL
  IFN-y: 0 pg/mL
  IL-1β: 2914.1 pg/mL
  IL-2: 9045.7 pg/mL
  IL-4: 58.9 pg/mL
  IL-5: 397.5 pg/mL
  IL-6: >5200 pg/mL
  IL-8: >6330 pg/mL
  IL-10: 1710.1 pg/mL
  TNF-α: >11390 pg/mL
PBMC; [7]
  GM-CSF: 0 pg/mL
  IFN-y: 0 pg/mL
  IL-1β: 0 pg/mL
  IL-2: 0 pg/mL
  IL-4: 0 pg/mL
  IL-5: 0 pg/mL
  IL-6: 0 pg/mL
  IL-8: >6330 pg/mL
  IL-10: 0 pg/mL
  TNF-α: 0 pg/mL
PBMC; [8]
  GM-CSF: 0 pg/mL
  IFN-y: >4740 pg/mL
  IL-1β: 3295.4 pg/mL
  IL-2: 6015.3 pg/mL
  IL-4: 0 pg/mL
  IL-5: 943.6 pg/mL
  IL-6: >5200 pg/mL
  IL-8: >6330 pg/mL
  IL-10: 664.9 pg/mL
  TNF-α: >11390 pg/mL
PBMC; [9]
  GM-CSF: 0 pg/mL
  IFN-y: 0 pg/mL
  IL-1β: 0 pg/mL
  IL-2: 0 pg/mL
  IL-4: 0 pg/mL
  IL-5: 0 pg/mL
  IL-6: 0 pg/mL
  IL-8: 6679.0 pg/mL
  IL-10: 0 pg/mL
  TNF-α: 0 pg/mL
PBMC; [10]
  GM-CSF: 0 pg/mL
  IFN-y: 0 pg/mL
  IL-1β: 0 pg/mL
  IL-2: 0 pg/mL
  IL-4: 0 pg/mL
  IL-5: 0 pg/mL
  IL-6: 0 pg/mL
  IL-8: 0 pg/mL
  IL-10: 0 pg/mL
  TNF-α: 0 pg/mL
PBMC; CD3MAb as mitogen, after 24 hours
  Th2 cytokine (IL10) secretion: Major increase
PBMC; CD3MAb as mitogen, by 4 hours, recovery by 24 hours
  TNF alpha secretion: blocked
[2]
  Increase in Rosette Formation: >370% and >288% and >208%
  increase in the number of rosettes in the presence of the anti-CD2 antibody: four-fold increase
Epithelial cells
  binding to epithelial cells: highest binding
46 different kinases
  interaction with kinases related to metabolic function: does not interact with any of kinases
